The target of assay [1] is T1, Insulin-like growth factor 1 receptor (Homo sapiens, UniProt P08069). Put plainly: Inhibition of human recombinant IGF1R expressed in Sf21 cells by time resolved fluorescence assay.
The target of assay [2] is T2, Receptor tyrosine-protein kinase erbB-2 (Homo sapiens, UniProt P04626). Put plainly: Inhibition of ErbB2 by time resolved fluorescence assay.
The target of assay [3] is T1, Insulin-like growth factor 1 receptor. Put plainly: Inhibition of IGF1R intracellular phosphorylation in human A431 cells by ELISA. It is filed as cell-based, A-431.
In assay [4] the target is T2, Receptor tyrosine-protein kinase erbB-2. Put plainly: Inhibition of ErbB2 intracellular phosphorylation in human N87 cells by ELISA.
For assay [5], the target named is Epidermal growth factor receptor (Homo sapiens, UniProt P00533).
Description: Inhibition of EGFR intracellular phosphorylation in human A431 cells by ELISA
Assay [6] has as its target Epidermal growth factor receptor (Homo sapiens, UniProt P00533, L858R).
Assay [7] can be described thus: Inhibition of CK2.
In assay [8] the target is T3, Serine/threonine-protein kinase Sgk1 (Homo sapiens, UniProt O00141).
T3 sequence (O00141 whole entry): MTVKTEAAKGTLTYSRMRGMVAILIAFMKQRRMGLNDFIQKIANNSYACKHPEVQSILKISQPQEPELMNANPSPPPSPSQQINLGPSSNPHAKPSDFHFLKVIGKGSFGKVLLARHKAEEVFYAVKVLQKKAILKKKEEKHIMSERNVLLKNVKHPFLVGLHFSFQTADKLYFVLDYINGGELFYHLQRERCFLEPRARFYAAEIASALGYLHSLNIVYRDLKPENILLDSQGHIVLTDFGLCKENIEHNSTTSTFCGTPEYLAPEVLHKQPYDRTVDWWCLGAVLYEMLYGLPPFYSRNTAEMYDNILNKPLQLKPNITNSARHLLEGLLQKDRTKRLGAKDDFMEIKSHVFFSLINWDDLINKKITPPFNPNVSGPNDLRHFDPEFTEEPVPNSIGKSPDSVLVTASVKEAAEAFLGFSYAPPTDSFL
The assay can be described thus: Inhibition of SGK.

Assay [9] concerns the target Protein kinase C eta type (Homo sapiens, UniProt P24723). Put plainly: Inhibition of PKCeta.
Assay [10] in a line: Inhibition of PKA.
Assay [11] is described as follows: Inhibition of P70S6K.
Assay [12] can be described thus: Inhibition of FGFR.
Assay [13] can be described thus: Inhibition of MAPKAPK.

T2 sequence (P04626 whole entry): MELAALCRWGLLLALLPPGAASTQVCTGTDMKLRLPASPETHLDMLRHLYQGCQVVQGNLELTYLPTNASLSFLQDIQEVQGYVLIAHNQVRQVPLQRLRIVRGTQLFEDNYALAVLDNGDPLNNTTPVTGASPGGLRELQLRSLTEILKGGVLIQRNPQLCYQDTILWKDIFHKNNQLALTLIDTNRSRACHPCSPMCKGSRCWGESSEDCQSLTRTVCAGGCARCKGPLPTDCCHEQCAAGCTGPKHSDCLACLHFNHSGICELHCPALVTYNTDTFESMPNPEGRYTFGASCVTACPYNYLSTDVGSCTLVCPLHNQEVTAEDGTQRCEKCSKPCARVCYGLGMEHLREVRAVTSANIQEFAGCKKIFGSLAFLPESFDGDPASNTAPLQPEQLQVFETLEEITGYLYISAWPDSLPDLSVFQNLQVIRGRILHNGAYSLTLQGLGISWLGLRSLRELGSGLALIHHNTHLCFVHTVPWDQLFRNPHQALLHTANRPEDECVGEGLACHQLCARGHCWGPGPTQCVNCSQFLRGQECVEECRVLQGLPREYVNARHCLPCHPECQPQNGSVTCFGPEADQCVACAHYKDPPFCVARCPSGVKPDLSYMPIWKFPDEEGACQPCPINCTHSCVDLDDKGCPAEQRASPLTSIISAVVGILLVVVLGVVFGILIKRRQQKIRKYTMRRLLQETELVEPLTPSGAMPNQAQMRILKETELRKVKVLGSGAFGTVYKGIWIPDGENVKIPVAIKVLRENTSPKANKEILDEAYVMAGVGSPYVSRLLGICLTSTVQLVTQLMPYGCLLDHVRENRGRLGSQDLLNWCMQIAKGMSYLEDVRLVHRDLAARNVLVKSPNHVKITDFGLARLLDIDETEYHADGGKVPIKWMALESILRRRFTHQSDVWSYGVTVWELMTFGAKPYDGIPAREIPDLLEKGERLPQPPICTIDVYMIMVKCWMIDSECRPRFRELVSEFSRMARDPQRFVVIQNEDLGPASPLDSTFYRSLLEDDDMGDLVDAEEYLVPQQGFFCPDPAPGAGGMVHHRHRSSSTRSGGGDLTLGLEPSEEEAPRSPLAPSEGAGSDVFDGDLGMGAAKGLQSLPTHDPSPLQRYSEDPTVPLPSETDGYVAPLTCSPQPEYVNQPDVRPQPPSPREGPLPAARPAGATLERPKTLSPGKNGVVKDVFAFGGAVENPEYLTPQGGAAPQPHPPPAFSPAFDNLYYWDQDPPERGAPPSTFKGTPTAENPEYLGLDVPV
T1 sequence (P08069 31-736 limits assumed): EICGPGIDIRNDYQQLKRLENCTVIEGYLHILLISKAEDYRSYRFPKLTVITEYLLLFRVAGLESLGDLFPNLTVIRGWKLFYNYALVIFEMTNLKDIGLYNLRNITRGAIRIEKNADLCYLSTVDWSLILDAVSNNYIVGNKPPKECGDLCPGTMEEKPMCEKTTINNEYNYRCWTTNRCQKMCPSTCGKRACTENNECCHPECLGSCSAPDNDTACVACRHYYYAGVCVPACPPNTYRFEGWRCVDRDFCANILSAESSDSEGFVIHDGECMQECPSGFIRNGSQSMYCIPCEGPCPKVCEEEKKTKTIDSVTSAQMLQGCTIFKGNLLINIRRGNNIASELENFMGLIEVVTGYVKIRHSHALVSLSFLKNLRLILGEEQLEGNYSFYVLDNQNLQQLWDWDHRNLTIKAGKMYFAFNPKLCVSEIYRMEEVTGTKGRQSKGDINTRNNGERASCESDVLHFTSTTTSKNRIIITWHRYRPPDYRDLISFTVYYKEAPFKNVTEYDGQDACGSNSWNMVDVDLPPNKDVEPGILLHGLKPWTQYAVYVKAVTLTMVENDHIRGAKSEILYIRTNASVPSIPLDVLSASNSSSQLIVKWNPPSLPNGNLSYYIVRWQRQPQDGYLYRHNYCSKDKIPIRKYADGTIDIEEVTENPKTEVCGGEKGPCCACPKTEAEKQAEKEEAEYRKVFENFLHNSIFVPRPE
T1 sequence (P08069 741-1367 limits assumed): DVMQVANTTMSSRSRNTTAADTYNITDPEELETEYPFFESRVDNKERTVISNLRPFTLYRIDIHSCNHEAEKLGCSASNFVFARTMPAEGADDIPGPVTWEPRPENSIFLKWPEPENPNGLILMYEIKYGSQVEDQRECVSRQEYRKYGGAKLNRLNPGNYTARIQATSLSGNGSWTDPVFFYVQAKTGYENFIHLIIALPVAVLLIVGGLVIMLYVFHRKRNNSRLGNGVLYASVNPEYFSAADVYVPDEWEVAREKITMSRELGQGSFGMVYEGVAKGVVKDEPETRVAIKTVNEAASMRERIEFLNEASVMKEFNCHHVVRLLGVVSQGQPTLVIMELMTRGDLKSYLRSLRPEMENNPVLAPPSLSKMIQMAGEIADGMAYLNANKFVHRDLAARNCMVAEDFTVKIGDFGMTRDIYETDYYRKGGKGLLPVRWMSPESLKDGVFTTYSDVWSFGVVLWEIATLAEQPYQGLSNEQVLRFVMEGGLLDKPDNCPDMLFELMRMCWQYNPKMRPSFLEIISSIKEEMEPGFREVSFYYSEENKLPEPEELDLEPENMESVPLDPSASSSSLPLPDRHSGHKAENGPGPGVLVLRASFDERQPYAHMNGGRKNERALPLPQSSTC
Chain of Epidermal growth factor receptor (Homo sapiens, UniProt P00533) (P00533 whole entry): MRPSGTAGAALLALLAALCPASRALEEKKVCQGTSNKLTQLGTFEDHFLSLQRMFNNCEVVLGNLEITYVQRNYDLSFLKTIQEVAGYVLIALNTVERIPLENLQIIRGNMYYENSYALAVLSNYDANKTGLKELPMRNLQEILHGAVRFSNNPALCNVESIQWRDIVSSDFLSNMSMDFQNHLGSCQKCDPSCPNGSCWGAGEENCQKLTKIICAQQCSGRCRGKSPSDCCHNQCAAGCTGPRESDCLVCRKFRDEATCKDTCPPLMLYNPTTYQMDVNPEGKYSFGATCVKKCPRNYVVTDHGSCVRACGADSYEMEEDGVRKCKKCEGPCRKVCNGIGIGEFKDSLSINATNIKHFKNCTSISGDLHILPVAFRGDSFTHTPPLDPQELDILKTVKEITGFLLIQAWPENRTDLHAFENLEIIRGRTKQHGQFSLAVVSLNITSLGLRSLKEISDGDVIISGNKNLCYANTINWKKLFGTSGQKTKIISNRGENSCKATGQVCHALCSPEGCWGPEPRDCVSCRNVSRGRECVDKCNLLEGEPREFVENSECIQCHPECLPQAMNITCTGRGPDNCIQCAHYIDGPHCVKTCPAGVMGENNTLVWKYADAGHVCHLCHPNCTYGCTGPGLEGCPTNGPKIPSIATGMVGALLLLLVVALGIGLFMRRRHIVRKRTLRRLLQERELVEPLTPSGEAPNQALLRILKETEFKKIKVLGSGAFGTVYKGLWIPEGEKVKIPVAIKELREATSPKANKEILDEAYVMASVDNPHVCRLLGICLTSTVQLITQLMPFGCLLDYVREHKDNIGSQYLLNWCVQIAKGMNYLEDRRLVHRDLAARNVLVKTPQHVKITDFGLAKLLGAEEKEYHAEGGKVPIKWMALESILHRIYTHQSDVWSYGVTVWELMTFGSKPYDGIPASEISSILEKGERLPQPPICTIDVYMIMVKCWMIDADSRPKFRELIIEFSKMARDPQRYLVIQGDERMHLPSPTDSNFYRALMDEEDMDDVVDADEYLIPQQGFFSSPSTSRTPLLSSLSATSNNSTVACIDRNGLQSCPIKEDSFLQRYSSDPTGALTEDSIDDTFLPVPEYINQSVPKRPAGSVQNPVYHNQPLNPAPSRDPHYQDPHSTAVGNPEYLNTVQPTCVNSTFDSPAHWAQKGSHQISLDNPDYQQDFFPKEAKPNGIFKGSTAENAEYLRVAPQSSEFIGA
Chain of Epidermal growth factor receptor (Homo sapiens, UniProt P00533, L858R) (P00533 25-1210 L858R limits assumed): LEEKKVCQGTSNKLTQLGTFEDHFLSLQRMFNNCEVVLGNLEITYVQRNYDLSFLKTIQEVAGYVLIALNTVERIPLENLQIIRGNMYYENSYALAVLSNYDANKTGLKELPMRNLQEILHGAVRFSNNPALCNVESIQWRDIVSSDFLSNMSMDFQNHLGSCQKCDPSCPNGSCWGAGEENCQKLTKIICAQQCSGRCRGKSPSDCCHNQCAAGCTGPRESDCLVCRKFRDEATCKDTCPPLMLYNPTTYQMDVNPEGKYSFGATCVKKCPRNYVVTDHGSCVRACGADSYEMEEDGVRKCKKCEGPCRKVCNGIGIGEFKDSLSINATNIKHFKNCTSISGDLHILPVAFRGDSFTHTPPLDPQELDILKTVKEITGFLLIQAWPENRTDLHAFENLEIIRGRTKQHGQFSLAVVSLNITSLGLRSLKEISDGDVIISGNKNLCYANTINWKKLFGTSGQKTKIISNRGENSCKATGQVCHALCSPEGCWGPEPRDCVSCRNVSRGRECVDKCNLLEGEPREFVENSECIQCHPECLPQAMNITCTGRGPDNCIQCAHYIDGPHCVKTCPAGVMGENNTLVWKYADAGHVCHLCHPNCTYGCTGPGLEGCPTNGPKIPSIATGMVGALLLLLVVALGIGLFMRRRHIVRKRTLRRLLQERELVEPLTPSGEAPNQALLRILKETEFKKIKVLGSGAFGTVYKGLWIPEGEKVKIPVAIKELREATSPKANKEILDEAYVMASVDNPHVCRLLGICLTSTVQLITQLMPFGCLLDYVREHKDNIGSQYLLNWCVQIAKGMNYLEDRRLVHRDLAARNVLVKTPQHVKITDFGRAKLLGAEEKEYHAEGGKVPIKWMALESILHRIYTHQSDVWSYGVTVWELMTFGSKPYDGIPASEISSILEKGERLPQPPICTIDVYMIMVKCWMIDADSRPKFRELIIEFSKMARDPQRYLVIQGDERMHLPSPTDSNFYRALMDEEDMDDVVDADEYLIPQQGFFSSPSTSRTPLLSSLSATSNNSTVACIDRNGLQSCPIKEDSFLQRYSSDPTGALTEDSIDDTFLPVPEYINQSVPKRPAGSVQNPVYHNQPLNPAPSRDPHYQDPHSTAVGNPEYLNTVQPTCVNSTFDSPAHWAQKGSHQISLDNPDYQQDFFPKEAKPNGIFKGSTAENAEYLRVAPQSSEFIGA

As for `CCN1CCN(c2ccc(Nc3nccc(-c4c(-c5cccc(NC(=O)c6c(F)cccc6F)c5)nc5sccn45)n3)cc2)CC1`, the IC50 in [1] worked out at 230 nM; in assay [2], 14 nM; in [3], 200 nM; in assay [4], 69 nM; in [5] it was 50 nM; in [6] it was 0.96 nM.

As to `Nc1nc2ccc(-c3c(-c4cccc(NC(=O)c5ccccc5Cl)c4)nc4sccn34)cc2[nH]1`, the IC50 in [1], in assay [2] and in assay [6] was greater than 12500 nM in each case.

Turning to `O=C(Nc1cccc(-c2nc3sccn3c2-c2ccnc(Nc3ccc4c(c3)CCNC4)n2)c1)c1c(F)cccc1F`, the results for the IC50 in assay [1], in assay [2] and in assay [6] were 100 nM, 7.2 nM and 2.3 nM, respectively.

On to `CN(C)CCc1cccc(Nc2nccc(-c3c(-c4cccc(NC(=O)Cc5ccccc5)c4)nc4sccn34)n2)c1`, for which the IC50 in assay [2] was 150 nM; in assay [6], 24 nM.

In the case of `O=C(CC1CCCCC1)Nc1cccc(-c2nc3sccn3c2-c2ccnc(Nc3ccc(N4CCOCC4)cc3)n2)c1`, the IC50 in assay [1] worked out at 1100 nM; in [2], 1400 nM; in assay [6] it was 870 nM.

With `O=C(Nc1cccc(-c2nc3sccn3c2-c2ccnc(Nc3ccccc3)n2)c1)c1ccccc1Cl`, the IC50 in assay [1] is greater than 12500 nM; in assay [2], 35 nM; in assay [6], 83 nM.

On to `O=C(Nc1cccc(-c2nc3sccn3c2-c2ccnc(Nc3ccc(N4CCOCC4)cc3)n2)c1)Oc1ccccc1`, for which the figures for the concentration for half-maximal inhibition (IC50) in [1], in [2] and in [6] were 450 nM, 170 nM and 190 nM, respectively.

Take `O=C(Cc1ccccc1)Nc1cccc(-c2nc3sccn3c2-c2ccnc(Nc3ccc4c(c3)CCNC4)n2)c1`: the IC50 in assay [1] amounted to 27 nM; in assay [2], 55 nM; in assay [3] it was 180 nM; in assay [4], 120 nM; in [5] it was 1000 nM; in assay [6] it was 6.4 nM.

Consider `O=C(Nc1cccc(-c2nc3sccn3c2-c2ccnc(Nc3ccccc3)n2)c1)c1ccccc1`, for which the IC50 in assay [1] was greater than 12500 nM; in assay [2], 6.3 nM; in assay [6], 55 nM.

Regarding `CN(C)CCc1ccc(Nc2nccc(-c3c(-c4cccc(NC(=O)c5c(F)cccc5F)c4)nc4sccn34)n2)cc1`, the IC50 is 210 nM in assay [1]; 4.3 nM in assay [2]; 330 nM in [3]; 27 nM in [4]; 220 nM in assay [5]; 0.78 nM in [6].

Take `CN1CCc2cc(Nc3nccc(-c4c(-c5cccc(NC(=O)Cc6ccccc6)c5)nc5sccn45)n3)ccc2C1`: the concentration for half-maximal inhibition (IC50) was 81 nM in [1], 160 nM in assay [2] and 57 nM in assay [6].

In the case of `O=C(Cc1ccccc1)Nc1cccc(-c2nc3sccn3c2-c2ccnc(Nc3cccc(N4CCOCC4)c3)n2)c1`, the IC50 was greater than 1000 nM in [7]; greater than 1000 nM in assay [8]; greater than 1000 nM in assay [9]; greater than 1000 nM in assay [10]; greater than 1000 nM in assay [11]; 890 nM in [12]. For the same compound, in assay [13], the IC50 is greater than 1000 nM.

As for `O=C(Nc1cccc(-c2nc3sccn3c2-c2ccnc(Nc3ccc(N4CCOCC4)cc3)n2)c1)c1ccccc1`, the IC50 was determined as 1500 nM in [1], 4.8 nM in assay [2] and 7.9 nM in assay [6].

On to `O=C(Nc1cccc(-c2nc3sccn3c2-c2ccnc(Nc3cccc(N4CCOCC4)c3)n2)c1)c1c(F)cccc1F`, for which the half-maximal inhibitory concentration (IC50) in [1] came to 3800 nM; in [2], 86 nM; in assay [6] it was 6.2 nM.

On to `O=[N+]([O-])c1cccc(-c2nc3sccn3c2-c2ccnc(Nc3ccccc3)n2)c1`, for which the figures for the IC50 in assay [1] and in [2] were greater than 12500 nM and 6000 nM, respectively.

On to `O=C(Nc1ccccc1)Nc1cccc(-c2nc3sccn3c2-c2ccnc(Nc3ccc(N4CCOCC4)cc3)n2)c1`, for which the IC50 was 590 nM in assay [1], 170 nM in assay [2] and 100 nM in assay [6].

Take `O=C(CC1CCCC1)Nc1cccc(-c2nc3sccn3c2-c2ccnc(Nc3ccc(N4CCOCC4)cc3)n2)c1`: the IC50 in assay [1] is 580 nM; in [2] it was 1300 nM; in assay [6], 660 nM.

As to `O=C(Nc1cccc(-c2nc3sccn3c2-c2ccnc(Nc3ccc(N4CCOCC4)cc3)n2)c1)c1c(F)cccc1F`, the figures for the IC50 in assay [1], in assay [2] and in assay [6] were 1300 nM, 86 nM and 1.9 nM, respectively.

Take `CCN1CCN(c2ccc(Nc3nccc(-c4c(-c5cccc(NC(=O)Cc6ccccc6)c5)nc5sccn45)n3)cc2)CC1`: the IC50 in [1] stood at 52 nM; in assay [2] it was 170 nM; in [3], 41 nM; in [4] it was 310 nM.

`O=C(Nc1cccc(-c2nc3sccn3c2-c2ccncc2)c1)c1ccccc1Cl`: the IC50 in assay [1] is greater than 12500 nM; in [2] it was 240 nM; in assay [6], 240 nM.

The record behind these values is ChEMBL document CHEMBL1156213, “Imidazo[2,1-b]thiazoles: multitargeted inhibitors of both the insulin-like growth factor receptor and members of the epidermal growth factor family of receptor tyrosine kinases” (Bioorg Med Chem Lett, 2010).
